Measurements as given in the supplement of paper PMC10307832.

Assays:
Assay in all cases: relative viability (nuclei count vs DMSO), 5 days (fraction); higher = more cells survive
CAP-232 + Palbociclib = compound: C[C@H]([C@@H](C(=O)N)NC(=O)[C@@H]1CSSC[C@@H](C(=O)N[C@H](C(=O)N[C@@H](C(=O)N[C@H](C(=O)N1)CCCCN)CC2=CNC3=CC=CC=C32)CC4=CC=C(C=C4)O)NC(=O)[C@@H](CC5=CC=CC=C5)N)O [CAP-232] + CC(=O)c1c(C)c2cnc(Nc3ccc(N4CCNCC4)cn3)nc2n(C2CCCC2)c1=O [Palbociclib] (partner 0.5 µM)
Method in brief: (§1)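 Lung cancer cell lines in 1536-well plates were dosed by pin tool the day after seeding, either with one drug alone or with a fixed anchor-drug dose plus five library-drug doses (not always all listed) in √10 steps. After 5 days, cells were fixed and their nuclei stained in one step (final 0.05% Triton X-100, 1% formaldehyde, 1 ug/ml Hoechst), then counted on 4× images. Relative viability is the nuclei count in treated wells divided by that in vehicle wells. Values are medians of duplicate plates.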

CAP-232 + Olaparib = compound: C[C@H]([C@@H](C(=O)N)NC(=O)[C@@H]1CSSC[C@@H](C(=O)N[C@H](C(=O)N[C@@H](C(=O)N[C@H](C(=O)N1)CCCCN)CC2=CNC3=CC=CC=C32)CC4=CC=C(C=C4)O)NC(=O)[C@@H](CC5=CC=CC=C5)N)O [CAP-232] + O=C(c1cc(Cc2n[nH]c(=O)c3ccccc23)ccc1F)N1CCN(C(=O)C2CC2)CC1 [Olaparib] (partner 8 µM)
Method in brief: as §1

CAP-232 + Pemetrexed = compound: C[C@H]([C@@H](C(=O)N)NC(=O)[C@@H]1CSSC[C@@H](C(=O)N[C@H](C(=O)N[C@@H](C(=O)N[C@H](C(=O)N1)CCCCN)CC2=CNC3=CC=CC=C32)CC4=CC=C(C=C4)O)NC(=O)[C@@H](CC5=CC=CC=C5)N)O [CAP-232] + Nc1nc2[nH]cc(CCc3ccc(C(=O)N[C@@H](CCC(=O)O)C(=O)O)cc3)c2c(=O)[nH]1 [Pemetrexed] (partner 0.2 µM)
Method in brief: as §1

CAP-232 + Phenformin = compound: C[C@H]([C@@H](C(=O)N)NC(=O)[C@@H]1CSSC[C@@H](C(=O)N[C@H](C(=O)N[C@@H](C(=O)N[C@H](C(=O)N1)CCCCN)CC2=CNC3=CC=CC=C32)CC4=CC=C(C=C4)O)NC(=O)[C@@H](CC5=CC=CC=C5)N)O [CAP-232] + N=C(N)NC(=N)NCCc1ccccc1 [Phenformin] (partner 250 µM)
Method in brief: as §1

CAP-232 + Lapatinib = compound: C[C@H]([C@@H](C(=O)N)NC(=O)[C@@H]1CSSC[C@@H](C(=O)N[C@H](C(=O)N[C@@H](C(=O)N[C@H](C(=O)N1)CCCCN)CC2=CNC3=CC=CC=C32)CC4=CC=C(C=C4)O)NC(=O)[C@@H](CC5=CC=CC=C5)N)O [CAP-232] + CS(=O)(=O)CCNCc1ccc(-c2ccc3ncnc(Nc4ccc(OCc5cccc(F)c5)c(Cl)c4)c3c2)o1 [Lapatinib] (partner 2 µM)
Method in brief: as §1

Cell Line | relative viability (CAP-232 + Palbociclib; first compound 0.4 µM) | relative viability (CAP-232 + Palbociclib; first compound 1.265 µM) | relative viability (CAP-232 + Palbociclib; first compound 4 µM) | relative viability (CAP-232 + Palbociclib; first compound 12.65 µM) | relative viability (CAP-232 + Olaparib; first compound 0.4 µM) | relative viability (CAP-232 + Olaparib; first compound 1.265 µM) | relative viability (CAP-232 + Olaparib; first compound 4 µM) | relative viability (CAP-232 + Olaparib; first compound 12.65 µM) | relative viability (CAP-232 + Pemetrexed; first compound 0.4 µM) | relative viability (CAP-232 + Pemetrexed; first compound 1.265 µM) | relative viability (CAP-232 + Pemetrexed; first compound 4 µM) | relative viability (CAP-232 + Pemetrexed; first compound 12.65 µM) | relative viability (CAP-232 + Phenformin; first compound 0.4 µM) | relative viability (CAP-232 + Phenformin; first compound 1.265 µM) | relative viability (CAP-232 + Phenformin; first compound 4 µM) | relative viability (CAP-232 + Phenformin; first compound 12.65 µM) | relative viability (CAP-232 + Lapatinib; first compound 0.4 µM) | relative viability (CAP-232 + Lapatinib; first compound 1.265 µM) | relative viability (CAP-232 + Lapatinib; first compound 4 µM) | relative viability (CAP-232 + Lapatinib; first compound 12.65 µM)
201T | 0.357 | 0.354 | 0.317 | 0.376 | 0.892 | 0.833 | 0.871 | 0.854 | 0.341 | 0.332 | 0.356 | 0.303 | 0.487 | 0.419 | 0.416 | 0.443 | 1.11 | 0.98 | 1.04 | 1.04
A549 |  |  |  |  | 0.211 | 0.292 | 0.396 | 0.326 |  |  |  |  | 0.164 | 0.183 | 0.146 | 0.113 | 1.1 | 1 | 1.05 | 0.42
A-427 | 0.528 | 0.554 | 0.508 | 0.467 | 0.813 | 0.646 | 0.808 | 0.814 | 1.22 | 0.923 | 0.974 | 0.924 | 0.249 | 0.332 | 0.259 | 0.312 | 1.09 | 1.04 | 1.17 | 1.09
ABC-1 | 0.641 |  | 0.691 | 0.513 | 0.778 |  | 0.665 | 0.368 |  |  |  |  | 0.249 | 0.243 | 0.215 | 0.186 | 1 | 1.12 | 0.887 | 1.26
BEN | 0.516 | 0.46 | 0.456 | 0.448 | 1.02 | 1.04 | 0.959 | 1.07 | 0.888 | 0.613 | 0.923 | 0.752 | 0.246 | 0.231 | 0.231 | 0.221 | 0.776 | 0.661 | 0.583 | 0.575
CAL-12T | 0.422 | 0.552 | 0.376 | 0.179 | 0.778 | 0.767 | 0.696 | 0.6 | 0.929 | 1.26 | 1.16 | 1.1 | 0.491 | 0.506 | 0.593 | 0.355 | 0.528 | 0.612 | 0.644 | 0.736
COR-L23 | 0.338 | 0.29 | 0.304 | 0.255 | 0.43 | 0.403 | 0.404 | 0.279 | 0.203 | 0.199 | 0.196 | 0.163 | 0.497 | 0.47 | 0.468 | 0.372 | 1.3 | 0.961 | 1.08 | 0.845
COR-L 105 | 0.395 | 0.401 | 0.384 | 0.387 | 0.733 | 0.61 | 0.712 | 0.571 | 1.44 | 0.964 | 1.18 | 0.783 | 0.423 | 0.429 | 0.501 | 0.287 | 0.333 | 0.376 | 0.354 | 0.33
ChaGo-K-1 | 0.964 | 0.932 | 1.01 | 0.932 | 0.425 | 0.428 | 0.456 | 0.421 | 0.284 | 0.259 | 0.259 | 0.248 | 0.487 | 0.466 | 0.601 | 0.505 |  |  |  | 
EKVX | 0.387 | 0.339 | 0.262 | 0.262 | 0.901 | 0.95 | 0.993 | 0.804 | 0.392 | 0.375 | 0.413 | 0.33 | 0.232 | 0.218 | 0.23 | 0.233 | 0.211 | 0.203 | 0.191 | 0.171
EMC-BAC-2 | 0.507 | 0.512 | 0.491 | 0.427 | 0.52 | 0.47 | 0.469 | 0.398 | 0.44 | 0.412 | 0.422 | 0.442 | 0.541 | 0.498 | 0.526 | 0.465 | 0.951 | 0.914 | 0.928 | 0.917
EPLC-272H | 0.342 | 0.292 | 0.297 | 0.296 |  | 0.935 | 0.761 | 0.31 |  | 0.411 | 0.316 | 0.178 | 0.276 | 0.285 | 0.319 | 0.322 | 1.25 | 0.86 | 1.04 | 0.971
H3255 | 0.314 | 0.32 | 0.329 | 0.282 | 0.569 | 0.587 | 0.552 | 0.433 | 0.605 | 0.549 | 0.559 | 0.543 | 0.746 | 0.309 | 0.341 | 0.504 | 0.317 | 0.226 | 0.219 | 0.0844
HARA | 0.236 | 0.31 | 0.246 | 0.265 | 0.823 | 0.784 | 0.865 | 0.609 | 0.281 | 0.243 | 0.268 | 0.215 | 0.538 | 0.5 | 0.463 | 0.515 | 0.717 | 0.613 | 0.691 | 0.732
HCC-15 | 0.754 | 0.763 | 0.567 | 0.567 | 0.65 | 0.711 | 0.737 | 0.55 | 0.19 | 0.218 | 0.223 | 0.0856 | 0.477 | 0.465 | 0.481 | 0.236 | 0.971 | 0.8 | 0.934 | 0.654
